# Measured values as given in US10822334B2, “ErbB receptor inhibitors” (Dizal (Jiangsu) Pharmaceutical Co., Ltd., priority 2018, dated 2020).
# Where two headings read alike, the source gives them in different places.
# Key:
# WT HER2 = WT HER2 (Homo sapiens (Human), UniProt P04626); assay: HER2 (Y1248) phosphorylation in BT474 cells (MSD); type: cell-based; conditions: p-HER2 (Y1248)/total HER2, 4 h, read-out: HER2 WT Amplification BT474 IC50
# Protocol: The plates were incubated for 4 h at 37° C. with 5% CO2 and then the HER2 (Y1248) phosphorylation level of cells in each well were measured with MSD Kit (Phospho-ErbB2 ([…]) Assay Whole Cell Lysate Kit: Cat # […]-3). The assay is a electrochemiluminescent method (MESO SCALE DISCOVERY) for determining both phosphorylated and total HER2 of cells with an MSD SECTOR® Imager and then the ratio of p-HER2/total HER2 can be generated by the machine.
# WT EGFR = WT EGFR (Homo sapiens (Human), UniProt P00533); assay: EGFR (Y1068) phosphorylation in NCI-H838 cells (MSD); type: cell-based; conditions: p-EGFR (Y1068)/total EGFR, 4 h, hEGF stimulation
# WT EGFR, sequence (P00533 25-1210): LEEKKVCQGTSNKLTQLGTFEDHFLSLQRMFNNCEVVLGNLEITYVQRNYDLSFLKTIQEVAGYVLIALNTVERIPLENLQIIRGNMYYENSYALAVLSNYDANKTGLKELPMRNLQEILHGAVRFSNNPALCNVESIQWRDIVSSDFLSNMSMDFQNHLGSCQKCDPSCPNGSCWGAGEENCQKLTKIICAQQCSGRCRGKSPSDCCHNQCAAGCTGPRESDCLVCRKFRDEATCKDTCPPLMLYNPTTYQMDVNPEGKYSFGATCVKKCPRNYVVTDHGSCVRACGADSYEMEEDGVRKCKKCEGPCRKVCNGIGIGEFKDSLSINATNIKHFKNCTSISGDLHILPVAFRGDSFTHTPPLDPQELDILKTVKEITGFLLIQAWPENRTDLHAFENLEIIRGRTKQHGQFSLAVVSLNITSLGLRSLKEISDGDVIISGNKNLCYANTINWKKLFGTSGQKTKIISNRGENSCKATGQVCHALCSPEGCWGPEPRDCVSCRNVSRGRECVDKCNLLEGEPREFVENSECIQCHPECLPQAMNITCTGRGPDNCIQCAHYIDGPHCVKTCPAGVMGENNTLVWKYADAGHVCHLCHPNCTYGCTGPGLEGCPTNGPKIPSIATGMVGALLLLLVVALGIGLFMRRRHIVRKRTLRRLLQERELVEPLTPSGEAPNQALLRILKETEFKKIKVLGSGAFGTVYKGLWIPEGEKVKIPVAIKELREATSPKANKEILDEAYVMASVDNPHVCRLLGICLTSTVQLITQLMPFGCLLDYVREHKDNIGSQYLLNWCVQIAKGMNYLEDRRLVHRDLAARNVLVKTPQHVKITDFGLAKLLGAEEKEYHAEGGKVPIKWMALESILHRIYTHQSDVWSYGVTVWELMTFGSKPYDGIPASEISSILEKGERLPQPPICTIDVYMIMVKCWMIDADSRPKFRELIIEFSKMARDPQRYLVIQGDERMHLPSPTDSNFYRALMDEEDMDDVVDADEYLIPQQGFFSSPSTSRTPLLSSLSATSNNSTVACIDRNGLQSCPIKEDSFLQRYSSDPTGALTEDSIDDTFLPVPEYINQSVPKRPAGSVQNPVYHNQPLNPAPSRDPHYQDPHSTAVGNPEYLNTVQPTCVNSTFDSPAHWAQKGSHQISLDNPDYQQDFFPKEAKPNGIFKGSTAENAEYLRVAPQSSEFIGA
# [1] = Blood brain barrier penetration assay in rats (short oral absorption model); type: in vivo; conditions: for Kp uu: male, Han Wistar, rat, po
# Protocol: In vitro blood, plasma and brain binding assay was carried out with equilibrium dialysis device. Diluted blood (1:1with DPBS pH7.4), EDTA-anticoagulated plasma, and brain homogenate (1:3 with DPBS pH7.4) were spiked with 5 μM test compound (in triplicate) and dialyzed against equal volume of 150 μL 100 mM PBS buffer (pH7.4) at 37° C. for appropriate equilibration time in a slowly rotated plate. At the end of incubation, a 50 μL aliquot from the receiver side and a 5 μL from the donor chamber were taken. The 5 μL sample was further diluted with 45 μL of blank blood, plasma or brain homogenate. Paired samples were matrix-matched with either buffer or blank matrix, and mixed for 2 min, and then precipitated with 150 μL cold acetonitrile with 100 ng/mL tolbutamide as internal standard. After centrifuging at 4000 rpm for 20 min, supernatant was diluted with 0.1% formic acid aqueous solution and analyzed for LC/MS/MS (API 4000, Applied Biosystems, Foster City). Unbound fraction (fu) of test compound were calculated by the ratio of the buffer side response to the brain homogenate/plasma/blood side response, and unbound fraction (fu,bl, fu,pl and fu,br) of test compound in non-diluted blood and tissue were calculated from measured fu in homogenate and diluted blood with the following equation: fu,bl (fu,br)=(1/D)/[(1/fu−1)+1/D)]. D is dilution factor. (D equates 1 for plasma, 2 for blood, and 4 for brain)
# A Short oral absorption (SOA) model is an in-vivo screening model to identify brain penetration of a compound. Six male Han Wistar rats purchased from Beijing Vital River were orally dosed with the compound. At predefined time point post-dose, cerebral spinal fluid (CSF) was collected from cisterna magna, and blood samples (>60 μL/time point/each site) were collected via cardiac puncture, into separate EDTA anti-coagulated tubes, and then immediately diluted with 3-fold volume of water for blood samples, or centrifuged at 4000 g for 10 min to obtain plasma. Brain tissue was harvested and homogenized in 3× volume of 100 mM phosphate buffered saline (pH7.4). All samples were stored at ˜−70° C. prior to LC/MS/MS analysis.
# Standards were prepared by spiking blank plasma, blood, brain homogenate and artificial CSF. Homogenized brain tissue along with blood/plasma samples were precipitated by adding 3-fold volume of cold acetonitrile containing internal standard, and 10 μL of CSF samples were precipitated with 100 μL of cold acetonitrile containing internal standard. After 2 min vortex and 5 min centrifugation at 14,000 rpm, supernatant was analyzed by LC/MS/MS (API 4000, Applied Biosystems, Foster City). Two sets of standard curves were run at the beginning and end of each batch from blood sample analysis. For brain and CSF samples, one standard curve was analyzed along with test samples.
# Total brain levels, expressed as brain/blood ratio (Kp,brain) were measured by AUC(brain)/AUC(blood or plasma) in rodents after oral administration. Similarly, CSF levels represented by a ratio of CSF/blood exposure (Kp,CSF) were determined by AUC(CSF)/AUC(blood or plasma). Free fraction of test compound in biological matrix was determined by in vitro blood and brain binding assay.
# Kp,uubrain and Kp,uu CSF was calculated by the following equation: Kp,uu brain=AUC(brain)/AUC(blood or plasma)×(fubrain/fublood/plasma) and Kp,uu CSF=AUC(CSF)/AUC(blood or plasma)×(1/fublood/plasma).
# BT474 cells = assay: BT474 anti-proliferation assay (MTS); type: cell-based; conditions: Homo sapiens
# Protocol: A compound's activity of selective inhibition for HER2 wild type amplification can be evaluated with BT474 cell line (ATCC® HTB-20™). The cell line expressed phosphorylated HER2 protein and its proliferation depended on the amplified gene, which could be used for in vitro PD and anti-proliferation assays.
# The anti-proliferation activity of compounds were determined as following procedure: The BT474 cells were sorted in 384 well plates with the DMEM medium containing 10% FBS and […] overnight and then dosed with tested compounds at a series of concentrations (30 μM, 10 μM, 3 μM, 0.3 μM, 0.1 μM, 0.03 μM, 0.01 μM, 0.001 μM) on next day. Meanwhile, another cells plate was prepared for measuring GO value on next day. The dosed plates were incubate for 72h at 37° C. with 5% CO2 and the number of viable cells in each well of GO or dosed plates were measured by MTS (CellTiter 96® AQueous One Solution Cell Proliferation Assay, Promega) endpoint. This assay is a colorimetric method for determining the number viable cells in the proliferation assay. Detection reagents (5 μl) was dispensed into per well, and the plates were incubated for 2 hrs at room temperature. Then, absorbance at 490 nm and 650 nm (reference wavelength) in each well was measured using the safile II. (Tecan). The percentage of proliferation was got from the formula: % Proliferation=100×(G3 value of sample well-Go value)/(G3 value of DMSO control-Go value). The GI50 values were further calculated as the compounds concentration required for 50% Proliferation in best-fit curves using Genedata Screener® software.
# [2] = CSF, male Han Wistar rats, oral, AUC(CSF)/AUC(blood or plasma) x 1/fu, read-out: Kp,uu CSF
# [3] = brain, male Han Wistar rats, oral, AUC(brain)/AUC(blood or plasma) x fu ratio, read-out: Kp,uu brain
# [4] = BT-474, BT474 cells, 72 h, MTS, read-out: HER2 WT Amplification BT474 GI50
# WT HER2, sequence (P04626 23-1255): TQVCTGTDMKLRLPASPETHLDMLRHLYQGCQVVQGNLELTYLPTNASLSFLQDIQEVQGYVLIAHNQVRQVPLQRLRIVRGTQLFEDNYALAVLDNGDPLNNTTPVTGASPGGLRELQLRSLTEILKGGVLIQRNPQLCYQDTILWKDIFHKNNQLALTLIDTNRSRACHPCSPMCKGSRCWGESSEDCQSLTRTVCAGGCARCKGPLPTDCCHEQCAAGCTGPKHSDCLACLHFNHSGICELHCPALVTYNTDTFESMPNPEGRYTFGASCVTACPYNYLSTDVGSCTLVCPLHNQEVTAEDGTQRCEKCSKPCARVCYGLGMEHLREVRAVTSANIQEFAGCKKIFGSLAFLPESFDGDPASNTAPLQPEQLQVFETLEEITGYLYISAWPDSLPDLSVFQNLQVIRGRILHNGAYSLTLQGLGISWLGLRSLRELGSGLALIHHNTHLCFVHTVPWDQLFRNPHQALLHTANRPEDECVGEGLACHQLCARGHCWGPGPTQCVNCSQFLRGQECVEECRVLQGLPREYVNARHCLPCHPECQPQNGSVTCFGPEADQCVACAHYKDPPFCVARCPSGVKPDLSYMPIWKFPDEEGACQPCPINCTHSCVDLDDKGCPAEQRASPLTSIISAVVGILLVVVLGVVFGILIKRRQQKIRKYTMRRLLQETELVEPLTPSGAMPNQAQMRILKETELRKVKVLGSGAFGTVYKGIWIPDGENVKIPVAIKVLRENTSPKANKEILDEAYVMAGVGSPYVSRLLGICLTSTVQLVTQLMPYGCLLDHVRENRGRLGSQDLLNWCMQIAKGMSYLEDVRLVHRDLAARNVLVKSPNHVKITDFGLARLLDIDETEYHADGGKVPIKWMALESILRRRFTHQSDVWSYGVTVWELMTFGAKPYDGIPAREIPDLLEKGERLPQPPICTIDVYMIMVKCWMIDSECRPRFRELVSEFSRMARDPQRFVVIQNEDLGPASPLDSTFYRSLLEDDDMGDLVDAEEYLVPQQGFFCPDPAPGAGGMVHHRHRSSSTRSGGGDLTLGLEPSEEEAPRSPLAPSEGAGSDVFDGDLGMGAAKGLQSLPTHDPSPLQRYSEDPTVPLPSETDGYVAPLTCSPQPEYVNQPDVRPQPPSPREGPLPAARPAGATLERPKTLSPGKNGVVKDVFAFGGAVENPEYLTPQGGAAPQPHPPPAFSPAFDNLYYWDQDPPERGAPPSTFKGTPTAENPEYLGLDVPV
SMILES,IC50 (WT HER2) [nM],IC50 (WT EGFR) [nM],"Kp uu [1, 2]","Kp uu [1, 3]",GI50 (BT474 cells; [4]) [nM],"Kp,uu CSF ([1]; male Han Wistar rats, oral, AUC(CSF)/AUC(blood or plasma) x 1/fu)","Kp,uu brain ([1]; male Han Wistar rats, oral, AUC(brain)/AUC(blood or plasma) x fu ratio)","GI50 (BT474 cells; BT-474, 72 h, read-out: HER2 WT Amplification BT474 GI50 (nM)) [nM]","Kp uu ([1]; in vivo, Kp,uu CSF)","Kp uu ([1]; in vivo, Kp,uu brain)"
"[2H]C([2H])([2H])N1CCC([2H])(Oc2cc(OC)cc3ncnc(Nc4ccc(Oc5ccn6ncnc6c5)c(C)c4)c23)C(F)(F)C1 (single isomer, unassigned) [Compound 28]",22.4,5220,0.52,0.11,35.8,–,–,–,–,–
"Cc1cc(Nc2ncnc3cccc(OC4CCN(C)CC4(F)F)c23)ccc1Oc1ccn2ncnc2c1 (single isomer, unassigned) [Compound 1, N-(4-([1,2,4]triazolo[1,5-a]pyridin-7-yloxy)-3-methylphenyl)-5-((3,3-difluoro-1-methylpiperidin-4-yl)oxy)quinazolin-4-amine]",6.86,> 3000,1.44,0.23,24.2 ± 24,–,–,–,–,–
"CCOc1cc2ncc(C#N)c(Nc3ccc(OCc4ccccn4)c(Cl)c3)c2cc1NC(=O)/C=C/CN(C)C [Neratinib, reference compound]",–,–,–,–,–,AUC(CSF) below,AUC(brain) below,0.71 ± 0.08,–,–
"[2H]C([2H])([2H])N1CC[C@H](Oc2cccc3ncnc(Nc4ccc(Oc5ccn6ncnc6c5)c(C)c4)c23)C[C@@H]1C(F)(F)F (racemic) [Compound 25, (±)-N-(4-([1,2,4]triazolo[1,5-a]pyridin-7-yloxy)-3-methylphenyl)-5-(((2R,4S)-1-(methyl-d3)-2-(trifluoromethyl)piperidin-4-yl)oxy)quinazolin-4-amine]",16.8,> 10000,1.92,0.11,47.2,–,–,–,–,–
"Cc1cc(Nc2ncnc3cccc(O[C@@H]4C[C@H]5CC[C@@H](C4)N5C)c23)ccc1Oc1ccn2ncnc2c1 [Compound 20, N-(4-([1,2,4]triazolo[1,5-a]pyridin-7-yloxy)-3-methylphenyl)-5-(((1R,3s,5S)-8-methyl-8-azabicyclo[3.2.1]octan-3-yl)oxy)quinazolin-4-amine]",12.6,> 10000,–,–,41 ± 1.55,–,–,–,0.07,0.08
"[2H]C1(Oc2cc(OC)cc3ncnc(Nc4ccc(Oc5ccn6ncnc6c5)c(C)c4)c23)CCN(C)CC1(F)F (racemic) [Compound 27, (±)-N-(4-([1,2,4]triazolo[1,5-a]pyridin-7-yloxy)-3-methylphenyl)-5-((3,3-difluoro-1-methylpiperidin-4-yl-4-d)oxy)-7-methoxyquinazolin-4-amine]",10.3,5130,0.52,0.1,22.1,–,–,–,–,–
"COc1cc(O[C@H]2CCNCC2(F)F)c2c(Nc3ccc(Oc4ccn5ncnc5c4)c(C)c3)ncnc2c1 [Compound 16, (S)-N-(4-([1,2,4]triazolo[1,5-a]pyridin-7-yloxy)-3-methylphenyl)-5-((3,3-difluoropiperidin-4-yl)oxy)-7-methoxyquinazolin-4-amine]",10.6 ± 2.4,3060 ± 80.2,0.11,0.03,14.3 ± 13.6,–,–,–,–,–

# More lines, in order of falling IC50 (WT HER2), values ahead:
IC50 (WT HER2) [nM],IC50 (WT EGFR) [nM],"Kp uu [1, 2]","Kp uu [1, 3]",GI50 (BT474 cells; [4]) [nM],SMILES,"Kp,uu CSF ([1]; male Han Wistar rats, oral, AUC(CSF)/AUC(blood or plasma) x 1/fu)","Kp,uu brain ([1]; male Han Wistar rats, oral, AUC(brain)/AUC(blood or plasma) x fu ratio)","GI50 (BT474 cells; BT-474, 72 h, read-out: HER2 WT Amplification BT474 GI50 (nM)) [nM]","Kp uu ([1]; in vivo, Kp,uu CSF)","Kp uu ([1]; in vivo, Kp,uu brain)"
44,> 3000,1.02,0.07,126 ± 9.01,"Cc1cc(Nc2ncnc3cc(F)cc(OC4CCN(C)CC4(F)F)c23)ccc1Oc1ccn2ncnc2c1 (single isomer, unassigned) [Compound 17]",–,–,–,–,–
19.7,1390,0.24,0.04,26.8 ± 11.5,"COc1cc(OC2CCN(C)CC2(F)F)c2c(Nc3cc(C)c(Oc4ccn5ncnc5c4)cc3F)ncnc2c1 (single isomer, unassigned) [Compound 14]",–,–,–,–,–
19.6 ± 8.76,3290 ± 1350,0.56,0.18,18.7 ± 9.16,"COc1cc(O[C@H]2CCN(C)CC2(F)F)c2c(Nc3ccc(Oc4ccn5ncnc5c4)c(C)c3)ncnc2c1 (single isomer, unassigned) [Compound 6]",–,–,–,–,–
9.56 ± 3.13,> 10000,0.4,0.1,11.5,"Cc1cc(Nc2ncnc3cccc(OC4CC(C)N(C)CC4(F)F)c23)ccc1Oc1ccn2ncnc2c1 (single isomer, unassigned) [Compound 19]",–,–,–,–,–
9.38,> 10000,1.44,0.23,50.8,"[2H]C([2H])([2H])N1CCC(Oc2cccc3ncnc(Nc4ccc(Oc5ccn6ncnc6c5)c(C)c4)c23)C(F)(F)C1 (single isomer, unassigned) [Compound 24, N-(4-([1,2,4]triazolo[1,5-a]pyridin-7-yloxy)-3-methylphenyl)-5-((3,3-difluoro-1-(methyl-d3)piperidin-4-yl)oxy)quinazolin-4-amine]",–,–,–,–,–
